Usually pIC50 stands for the IC50 on a negative log10 scale, so that one unit is a factor of ten.

Holding throughout (test): pIC50, kinobeads binding competition
Conditions in all cases: cell material: Jurkat lysate

One assay deals with T1, NEK1 (UniProt Q96PY6).
T1 sequence (whole entry): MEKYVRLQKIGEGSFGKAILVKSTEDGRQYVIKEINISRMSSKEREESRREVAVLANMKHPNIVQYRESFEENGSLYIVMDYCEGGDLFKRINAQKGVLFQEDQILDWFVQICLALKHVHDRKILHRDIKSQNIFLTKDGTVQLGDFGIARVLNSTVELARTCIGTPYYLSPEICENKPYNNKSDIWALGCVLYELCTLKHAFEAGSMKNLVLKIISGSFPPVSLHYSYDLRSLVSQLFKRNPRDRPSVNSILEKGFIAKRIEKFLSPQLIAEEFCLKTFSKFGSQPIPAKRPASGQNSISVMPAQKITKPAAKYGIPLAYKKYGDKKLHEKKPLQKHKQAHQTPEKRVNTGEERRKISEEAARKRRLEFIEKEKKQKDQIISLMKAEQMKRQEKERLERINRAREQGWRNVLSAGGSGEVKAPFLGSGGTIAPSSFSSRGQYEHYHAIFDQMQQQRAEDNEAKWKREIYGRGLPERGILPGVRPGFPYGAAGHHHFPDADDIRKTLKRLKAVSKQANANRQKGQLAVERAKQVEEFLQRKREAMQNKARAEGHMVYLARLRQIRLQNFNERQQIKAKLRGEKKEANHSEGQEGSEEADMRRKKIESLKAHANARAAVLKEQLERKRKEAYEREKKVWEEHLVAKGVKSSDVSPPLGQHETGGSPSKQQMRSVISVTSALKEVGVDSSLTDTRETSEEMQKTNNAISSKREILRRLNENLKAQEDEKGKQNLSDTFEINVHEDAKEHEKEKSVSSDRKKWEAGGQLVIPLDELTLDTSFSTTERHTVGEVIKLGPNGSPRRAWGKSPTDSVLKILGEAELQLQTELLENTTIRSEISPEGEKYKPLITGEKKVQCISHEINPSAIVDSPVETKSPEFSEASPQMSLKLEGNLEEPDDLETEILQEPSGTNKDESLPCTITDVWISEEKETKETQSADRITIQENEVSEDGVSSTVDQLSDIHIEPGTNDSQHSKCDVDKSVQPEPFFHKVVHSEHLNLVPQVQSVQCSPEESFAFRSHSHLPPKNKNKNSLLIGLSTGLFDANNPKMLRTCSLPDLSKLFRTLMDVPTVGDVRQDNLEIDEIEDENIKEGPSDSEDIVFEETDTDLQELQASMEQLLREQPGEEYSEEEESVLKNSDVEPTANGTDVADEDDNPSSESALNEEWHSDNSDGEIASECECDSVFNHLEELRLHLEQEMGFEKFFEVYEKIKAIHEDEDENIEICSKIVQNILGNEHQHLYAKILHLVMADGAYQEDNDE

The target of a further assay is STK39 (UniProt Q9UEW8).
The next assay addresses T2, MARK4 (UniProt Q96L34).
T2 sequence (whole entry): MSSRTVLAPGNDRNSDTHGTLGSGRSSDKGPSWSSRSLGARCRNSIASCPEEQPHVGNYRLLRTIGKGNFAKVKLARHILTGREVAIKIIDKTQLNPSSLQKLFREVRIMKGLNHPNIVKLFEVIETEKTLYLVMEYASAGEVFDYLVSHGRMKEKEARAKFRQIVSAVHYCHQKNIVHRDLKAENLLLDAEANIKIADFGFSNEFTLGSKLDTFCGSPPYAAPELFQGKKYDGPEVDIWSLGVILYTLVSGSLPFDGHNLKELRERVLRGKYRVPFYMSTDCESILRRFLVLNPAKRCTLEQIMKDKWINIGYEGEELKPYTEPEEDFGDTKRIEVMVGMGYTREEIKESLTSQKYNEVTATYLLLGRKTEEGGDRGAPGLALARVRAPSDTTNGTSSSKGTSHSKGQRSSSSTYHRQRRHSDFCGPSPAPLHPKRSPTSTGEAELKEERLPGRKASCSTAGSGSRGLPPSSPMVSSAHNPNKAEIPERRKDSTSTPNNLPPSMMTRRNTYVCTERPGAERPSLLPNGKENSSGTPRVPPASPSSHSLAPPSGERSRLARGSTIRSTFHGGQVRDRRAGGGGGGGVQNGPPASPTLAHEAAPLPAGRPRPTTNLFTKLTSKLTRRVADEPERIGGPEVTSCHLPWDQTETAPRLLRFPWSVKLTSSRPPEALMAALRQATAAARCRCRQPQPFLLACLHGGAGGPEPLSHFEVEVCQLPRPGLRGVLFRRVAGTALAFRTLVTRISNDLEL

For another assay, the target named is T3, NLK (UniProt Q9UBE8).
T3 sequence (whole entry): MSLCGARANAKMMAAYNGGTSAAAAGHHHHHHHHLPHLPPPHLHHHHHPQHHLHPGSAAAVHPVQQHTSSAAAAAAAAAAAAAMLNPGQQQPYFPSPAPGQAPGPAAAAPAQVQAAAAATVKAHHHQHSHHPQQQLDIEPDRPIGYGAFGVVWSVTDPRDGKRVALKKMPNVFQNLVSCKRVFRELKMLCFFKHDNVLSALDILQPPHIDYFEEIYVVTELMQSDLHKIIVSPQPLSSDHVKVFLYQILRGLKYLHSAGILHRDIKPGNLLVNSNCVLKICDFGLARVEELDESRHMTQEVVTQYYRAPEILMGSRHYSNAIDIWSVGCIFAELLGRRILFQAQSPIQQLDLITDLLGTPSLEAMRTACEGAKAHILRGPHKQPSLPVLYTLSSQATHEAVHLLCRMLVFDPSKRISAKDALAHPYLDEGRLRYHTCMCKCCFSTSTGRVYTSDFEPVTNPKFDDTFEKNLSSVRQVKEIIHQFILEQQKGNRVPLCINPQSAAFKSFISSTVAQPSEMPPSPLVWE

The structures appear in SMILES notation. ± gives the standard deviation of the averaged measurements.

Turning to `CCc1cnn2c(NCc3ccc[n+]([O-])c3)cc(N3CCCC[C@H]3CCO)nc12` [dinaciclib], the pIC50 is under 4.52 on NEK1, 5.015 ± 0.021 at STK39, under 4.52 on MARK4 and under 4.52 on NLK.

Values taken from the supplement of paper PMC12076712.
